Assay results from PubChem BioAssay (NCI).
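Five compound concentrations were applied to cells in 96-well plates for 48 hours; endpoints were derived by simple linear interpolation of the resulting dose-response curve. GI50 marks 50% less growth. TGI marks complete inhibition of growth.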

Assays:
Experiment in all cases: DTP human tumour cell line panel, 48 h
TK-10 renal = system: TK-10 renal
ACHN renal = system: ACHN renal
MCF7 breast = system: MCF7 breast
KM12 colon = system: KM12 colon
CCRF-CEM leukemia = system: CCRF-CEM leukemia
UACC-257 melanoma = system: UACC-257 melanoma
SF-539 CNS = system: SF-539 CNS
A498 renal = system: A498 renal
DU-145 prostate = system: DU-145 prostate
SK-OV-3 ovarian = system: SK-OV-3 ovarian
MDA-MB-231 breast = system: MDA-MB-231 breast
HCT-15 colon = system: HCT-15 colon
SK-MEL-28 melanoma = system: SK-MEL-28 melanoma
RXF 393 renal = system: RXF 393 renal
NCI-H522 lung = system: NCI-H522 lung
SK-MEL-2 melanoma = system: SK-MEL-2 melanoma
MDA-MB-435 = system: MDA-MB-435
OVCAR-5 ovarian = system: OVCAR-5 ovarian
A549 NSCLC = system: A549 NSCLC
BT-549 breast = system: BT-549 breast
HCT-116 colon = system: HCT-116 colon
HCC-2998 colon = system: HCC-2998 colon
SF-268 CNS = system: SF-268 CNS
SK-MEL-5 melanoma = system: SK-MEL-5 melanoma
SNB-75 CNS = system: SNB-75 CNS
EKVX NSCLC = system: EKVX NSCLC
OVCAR-4 ovarian = system: OVCAR-4 ovarian
K-562 leukemia = system: K-562 leukemia
M14 melanoma = system: M14 melanoma
RPMI-8226 leukemia = system: RPMI-8226 leukemia
UACC-62 melanoma = system: UACC-62 melanoma
IGROV1 ovarian = system: IGROV1 ovarian
HS 578T breast = system: HS 578T breast
HL-60(TB) leukemia = system: HL-60(TB) leukemia
SN12C renal = system: SN12C renal
COLO 205 colon = system: COLO 205 colon
HOP-62 NSCLC = system: HOP-62 NSCLC
U251 CNS = system: U251 CNS
NCI-H226 lung = system: NCI-H226 lung
OVCAR-8 ovarian = system: OVCAR-8 ovarian
NCI-H460 lung = system: NCI-H460 lung
LOX IMVI melanoma = system: LOX IMVI melanoma
NCI/ADR-RES ovarian = system: NCI/ADR-RES ovarian
SR leukemia = system: SR leukemia
OVCAR-3 ovarian = system: OVCAR-3 ovarian
NCI-H23 lung = system: NCI-H23 lung
SW-620 colon = system: SW-620 colon
MALME-3M melanoma = system: MALME-3M melanoma
786-0 renal = system: 786-0 renal
CAKI-1 renal = system: CAKI-1 renal
HT29 colon = system: HT29 colon
HOP-92 NSCLC = system: HOP-92 NSCLC
SNB-19 CNS = system: SNB-19 CNS
UO-31 renal = system: UO-31 renal
SF-295 CNS = system: SF-295 CNS
PC-3 prostate = system: PC-3 prostate
MOLT-4 leukemia = system: MOLT-4 leukemia

SMILES: COc1ccc(/C=C(/C(=O)N2CCN(c3ccc(C)cc3)CC2)c2cc(OC)c(OC)c(OC)c2)cc1N
- GI50 (TK-10 renal): 4.77 µM
- TGI (TK-10 renal): > 100 µM
- GI50 (ACHN renal): 0.203 µM
- TGI (ACHN renal): > 100 µM
- GI50 (MCF7 breast): 0.228 µM
- TGI (MCF7 breast): > 100 µM
- GI50 (KM12 colon): 0.314 µM
- TGI (KM12 colon): > 100 µM
- GI50 (CCRF-CEM leukemia): 0.394 µM
- TGI (CCRF-CEM leukemia): > 100 µM
- GI50 (UACC-257 melanoma): > 87.3 µM
- TGI (UACC-257 melanoma): > 100 µM
- GI50 (SF-539 CNS): 0.176 µM
- TGI (SF-539 CNS): 0.717 µM
- GI50 (A498 renal): 0.0571 µM
- TGI (A498 renal): 2.3 µM
- GI50 (DU-145 prostate): 0.307 µM
- TGI (DU-145 prostate): > 76.3 µM
- GI50 (SK-OV-3 ovarian): 0.755 µM
- TGI (SK-OV-3 ovarian): > 100 µM
- GI50 (MDA-MB-231 breast): 0.36 µM
- TGI (MDA-MB-231 breast): > 100 µM
- GI50 (HCT-15 colon): 0.337 µM
- TGI (HCT-15 colon): > 100 µM
- GI50 (SK-MEL-28 melanoma): 0.54 µM
- TGI (SK-MEL-28 melanoma): > 100 µM
- GI50 (RXF 393 renal): 0.271 µM
- TGI (RXF 393 renal): > 100 µM
- GI50 (NCI-H522 lung): 0.168 µM
- TGI (NCI-H522 lung): > 100 µM
- GI50 (SK-MEL-2 melanoma): 0.64 µM
- TGI (SK-MEL-2 melanoma): > 100 µM
- GI50 (MDA-MB-435): 0.108 µM
- GI50 (OVCAR-5 ovarian): 0.715 µM
- TGI (OVCAR-5 ovarian): > 100 µM
- GI50 (A549 NSCLC): 0.426 µM
- TGI (A549 NSCLC): > 100 µM
- GI50 (BT-549 breast): 0.199 µM
- TGI (BT-549 breast): 4.79 µM
- GI50 (HCT-116 colon): 0.254 µM
- TGI (HCT-116 colon): > 32.9 µM
- GI50 (HCC-2998 colon): 0.376 µM
- TGI (HCC-2998 colon): > 100 µM
- GI50 (SF-268 CNS): 0.43 µM
- TGI (SF-268 CNS): > 100 µM
- GI50 (SK-MEL-5 melanoma): 0.228 µM
- TGI (SK-MEL-5 melanoma): 0.661 µM
- GI50 (SNB-75 CNS): 0.509 µM
- TGI (SNB-75 CNS): > 100 µM
- GI50 (EKVX NSCLC): 0.628 µM
- TGI (EKVX NSCLC): > 100 µM
- GI50 (OVCAR-4 ovarian): 3.21 µM
- TGI (OVCAR-4 ovarian): > 100 µM
- GI50 (K-562 leukemia): 0.222 µM
- TGI (K-562 leukemia): > 100 µM
- GI50 (M14 melanoma): 0.247 µM
- TGI (M14 melanoma): 2.48 µM
- GI50 (RPMI-8226 leukemia): 0.284 µM
- TGI (RPMI-8226 leukemia): > 33.7 µM
- GI50 (UACC-62 melanoma): 0.362 µM
- TGI (UACC-62 melanoma): > 100 µM
- GI50 (IGROV1 ovarian): 0.304 µM
- TGI (IGROV1 ovarian): > 100 µM
- GI50 (HS 578T breast): 0.291 µM
- TGI (HS 578T breast): > 100 µM
- GI50 (HL-60(TB) leukemia): 0.255 µM
- TGI (HL-60(TB) leukemia): 0.679 µM
- GI50 (SN12C renal): 0.483 µM
- TGI (SN12C renal): > 100 µM
- GI50 (COLO 205 colon): 0.339 µM
- TGI (COLO 205 colon): 1.47 µM
- GI50 (HOP-62 NSCLC): 0.474 µM
- TGI (HOP-62 NSCLC): > 100 µM
- GI50 (U251 CNS): 0.397 µM
- TGI (U251 CNS): > 100 µM
- GI50 (NCI-H226 lung): 0.352 µM
- TGI (NCI-H226 lung): > 100 µM
- GI50 (OVCAR-8 ovarian): 0.417 µM
- TGI (OVCAR-8 ovarian): > 100 µM
- GI50 (NCI-H460 lung): 0.347 µM
- TGI (NCI-H460 lung): > 44 µM
- GI50 (LOX IMVI melanoma): 0.221 µM
- TGI (LOX IMVI melanoma): > 100 µM
- GI50 (NCI/ADR-RES ovarian): 0.293 µM
- TGI (NCI/ADR-RES ovarian): 21.7 µM
- GI50 (SR leukemia): 0.238 µM
- TGI (SR leukemia): > 100 µM
- GI50 (OVCAR-3 ovarian): 0.239 µM
- TGI (OVCAR-3 ovarian): 0.921 µM
- GI50 (NCI-H23 lung): 0.438 µM
- TGI (NCI-H23 lung): > 100 µM
- GI50 (SW-620 colon): 0.407 µM
- TGI (SW-620 colon): > 100 µM
- GI50 (MALME-3M melanoma): 0.503 µM
- TGI (MALME-3M melanoma): > 100 µM
- GI50 (786-0 renal): 0.32 µM
- TGI (786-0 renal): > 100 µM
- GI50 (CAKI-1 renal): 0.465 µM
- TGI (CAKI-1 renal): > 100 µM
- GI50 (HT29 colon): 0.339 µM
- TGI (HT29 colon): > 39.2 µM
- GI50 (HOP-92 NSCLC): 0.205 µM
- TGI (HOP-92 NSCLC): > 100 µM
- GI50 (SNB-19 CNS): 0.426 µM
- TGI (SNB-19 CNS): > 100 µM
- GI50 (UO-31 renal): 0.242 µM
- TGI (UO-31 renal): > 35.3 µM
- GI50 (SF-295 CNS): 0.287 µM
- TGI (SF-295 CNS): > 100 µM
- GI50 (PC-3 prostate): 0.312 µM
- TGI (PC-3 prostate): > 100 µM
- GI50 (MOLT-4 leukemia): 0.437 µM
- TGI (MOLT-4 leukemia): > 100 µM
